Results on 13 compounds are retold here after patent publication EP2062893A1, “Fused imidazoles for cancer treatment” (Bayer Schering Pharma AG, priority 2007, dated 2009).

Holding throughout (type): cell-based
In assay [1] the test system is phosphorylated GSK3. Nature of the assay: Cellular pGSK3 assay (phospho-GSK3 Ser9 sandwich ELISA). The settings on record: Homo sapiens; MCF7 cells, 48h incubation, IC50 of pGSK3 inhibition. The method, then: In order to study the cellular activity of the compounds according to the present invention, an ELISA-based assay has been established for the phosphorylated protein glycogen synthetase kinase 3 (GSK3). The assay is based on a solid phase sandwich ELISA that detects endogenous levels of phosphorylated GSK3 using a phospho-GSK3 (Ser9) specific antibody (BioSource International, Inc.; Catalog #KHO0461). After incubation with cell lysates, the coated antibody captures the phosphorylated GSK3 protein. Following extensive washing, GSK3 polyclonal antibody is added to detect the captured phospho-GSK3 protein. Secondary antibody (anti-rabbit IgG-HRP) is then used to recognize the bound detection antibody. After the second incubation and washing to remove all the excess anti-rabbit IgG-HRP, a substrate solution is added, which is acted upon by the bound enzyme to produce color. The intensity of this colored product is directly proportional to the concentration of GSK-3β [pS9] present in the original specimen. MCF7 cells (ATCC HTB-22) were seeded into 96 well fate bottom plates at a density of 10000 cells/well. After 24 h 1 µl each of the compound dilutions (test compounds were dissolved as 10 mM solutions in dimethylsulfoxide (DMSO) and subsequently diluted) were added into each well of the 96 well plates and incubated for 48h at 37°C in a humidified athmosphere containing 5% CO2. Cells were harvested and lysed in cell extraction buffer (10 mM Tris, pH 7.4, 100 mM NaCl, 1 mM EDTA, 1 mM EGTA, 1 mM NaF, 20 mM Na4P2O7, 2 mM Na3VO4, 1% Triton X-100, 10vol% glycerol, 0.1vol% SDS, 0.5vol% deoxycholate, 1 mM phenylmethylsulfonylfluorid (PMSF)). The lysate were centrifuged for 10 min. at 4°C and the supernatant were transferred to a new tube. 50 µl of sample diluent (standard diluent buffer, Biosource) were added and 100 µl of cell lysate transferred into the tube and vortexed. 100 µl of each diluted cell lysate were added to the appropriate ELISA well plate and incubated for 3h at room temperature. The plates were washed 4 times with 1x wash buffer (Biosource). 50 µl of detection antibody (GSK3 (Ser9) detection antibody; BioSource) were added to each well and incubated for 30 min. at room temperature. The washing procedure was repeated between each step. 100µl of HRP-linked secondary antibody (anti-mouse IgG HRP-linked antibody) were added to each well and incubated for 30 min. at room temperature. 100µl of TMB substrate (0.05vol% 3,3',5,5' tetramethylbenzidine, 0.1vol% hydrogen peroxide, complex polypeptides in a buffered solution; Biosource) were added to each well and incubated for 30 min. at room temperature. Finally 100 µl of Stop solution (0.05vol% α and β unsaturated carbonyl compound) were added to each well and the plate were shaked gently for a few seconds. The absorbance was measured at λ = 450 nm (Wallac Victor2; Perkin Elmer, USA) within 30 min. after adding the stop solution. The analysis of the data was performed using a statistical program (Excel; Microsoft, USA) and the IC50 of pGSK3 inhibition was determined.
A general note: ELISA stands for enzyme-linked immunosorbent assay.

Assay [2] deals with phosphorylated Akt protein. The assay can be described thus: Cellular PI3K / Akt pathway assay (phospho-Akt Ser473 sandwich ELISA). The settings on record: Homo sapiens; MCF7 cells, ß-Heregulin (20ng/ml) stimulation, 48h incubation. The method, then:
In order to study the cellular activity of the compounds according to the present invention, an Enzyme Linked Immunosorbent Assay (ELISA)-based assay has been used specific phospho-AKT. The assay is based on a Sandwich ELISA kit (PathScan™ Phospho-Akt1 (Ser473); Cell Signaling, USA; #7160). The ELISA Kit detects endogenous levels of phosphorylated Akt protein. A phospho-Akt (Ser473) antibody (Cell Signaling, USA; #9271) has been coated onto the microwells. After incubation with cell lysates, the coated antibody captures the phosphorylated Akt protein. Following extensive washing, Akt1 monoclonal antibody (Cell Signaling, USA; #2967) is added to detect the captured phospho-Akt1 protein. HRP-linked anti-mouse antibody (HRP: horseradish peroxidase; Cell Signaling, USA; #7076) is then used to recognize the bound detection antibody. HRP substrate (= 3,3',5,5'-tetramethylbenzidine (TMB); Cell Signaling, USA; #7160) is added to develop colour. The magnitude of optical density for this developed color is proportional to the quantity of phosphorylated Akt protein. MCF7 cells (ATCC HTB-22) are seeded into 96 well fate bottom plates at a density of 10000 cells/well. 24 hours after seeding, the cells are serum starved using low-serum medium (IMEM media including 0,1% charcoal treated FCS (FCS: fetal calf serum)). […] To stimulate Akt phosphorylation, ß-Heregulin (20ng/ml ß-HRG) is added in parallel to the compounds. Wells containing unstimulated control cells (no ß-Heregulin stimulation) are incubated with or without the diluted compound. Wells containing untreated control cells (no compound) are filled with medium containing 0.5% v:v DMSO and are or are not stimulated with ß-Heregulin. Cells are harvested and lysed with brief sonification in 1x cell lysis buffer (20mM Tris (pH7.5), 150 mM NaCl, 1 mM ethylene diaminetetraacetate (EDTA), 1 mM ethylene glycolbis(2-aminoethyl)-N,N,N',N'-tetraacetic acid (EGTA), 1vol% Triton X-100, 2.5mM sodium pyrophosphate, 1 mM β-glycerolphosphate, 1 mM Na3VO4, 1µg/ml leupeptin). The lysate is centrifuged for 10 min. at 4°C and the supernatant is transferred to a new tube. 100 µl of sample diluent (0.1vol% Tween-20, 0.1vol% sodium azide in phosphate buffered saline (PBS)) are added to a microcentrifuge tube and 100 µl of cell lysate are transferred into the tube and vortexed. 100 µl of each diluted cell lysate are added to the appropriate ELISA well, and incubated overnight at 4°C. The plates are washed 4 times with 1x wash buffer (1vol% tween-20, 0.33vol% thymol, in PBS). Next 100 µl of detection antibody (Akt1 (2H10) monoclonal detection antibody; Cell Signaling, USA; #2967) are added to each well and incubation continued for 1h at 37°C. The washing procedure is repeated between each step. 100µl of secondary antibody (anti-mouse IgG HRP-linked antibody; Cell Signaling, USA; #7076) are added to each well and incubated for 30 min. at 37°C. Than, 100µl of TMB substrate (0.05% 3,3',5,5' tetramethylbenzidine, 0.1 % hydrogen peroxide, complex polypeptides in a buffered solution; Cell Signaling, USA; #7160) are added to each well and incubated for 30 min. at 25°C. Finally 100 µl of STOP solution (0.05vol% α and β unsaturated carbonyl compound) are added to each well and the plate are shaked gently. The absorbance is measured at λ =450 nm (Wallac Victor2; Perkin Elmer, USA) within 30 min. after adding the STOP solution. The analysis of the data is performed using a statistical program (Excel; Microsoft, USA). Preferred compounds show an inhibitory activity towards Akt phosphorylation below 10µM.

In assay [3] the test system is OvCAR3 cells. Nature of the assay: Cellular proliferation / Cytotoxicity assay (Alamar Blue / Resazurin cell viability). The settings on record: Homo sapiens, OVCAR-3, 48h incubation, read-out: Anti-proliferative / Cytotoxic activity (OvCAR3 cells). The method, then:
Wells containing untreated control cells were filled with 200 µl DMEM (Dulbecco's Modified Eagle Medium) containing 0.5vol% v:v DMSO. The cells are then incubated with the substances for 48h at 37°C in a humidified atmosphere containing 5vol% CO2. To determine the viability of the cells, 20 µl of a Resazurin solution (90mg / I) are added. […] Viabilities are expressed as % values.
Background: The colour change of resazurin is a common sign of viable cells or microbes.

Regarding `c1ccc(-c2c(-c3ccc(CN4CCC(c5n[nH]c(-c6ccccn6)n5)CC4)cc3)nc3ncccn23)cc1` [Example 1, 3-phenyl-2-(4-{[4-(5-pyridin-2-yl-1,2,4-triazol-3-yl)piperidin-1-yl]methyl}phenyl)imidazo[1,2-a]pyrimidine], the IC50 in assay [1] was 1000 to 10000 nM; in assay [2] it was under 1000 nM; in assay [3], under 10000 nM.

Take `c1ccc(-c2c(-c3ccc(CN4CCC(c5n[nH]c(-c6ccccn6)n5)CC4)cc3)nc3ccccn23)cc1` [Example 2, 3-phenyl-2-(4-{[4-(5-pyridin-2-yl-1H-1,2,4-triazol-3-yl)piperidin-1-yl]methyl}phenyl)imidazo[1,2-a]pyridine]: the IC50 in assay [1] is 1000 to 10000 nM; in assay [2], under 1000 nM; in assay [3], under 10000 nM.

In the case of `c1ccc(-c2c(-c3ccc(CN4CCC(c5n[nH]c(-c6ccccn6)n5)CC4)cc3)nc3nccnn23)cc1` [Example 3, 7-phenyl-6-(4-{[4-(5-pyridin-2-yl-1H-1,2,4-triazol-3-yl)piperidin-1-yl]methyl}phenyl)imidazo[1,2-b][1,2,4]triazine], the IC50 was under 1000 nM in assay [1], under 1000 nM in assay [2] and under 10000 nM in assay [3].

On to `c1ccc(-c2c(-c3ccc(CN4CCC(c5nc(-c6cnccn6)no5)CC4)cc3)nc3ncccn23)cc1` [Example 4, 3-phenyl-2-(4-{[4-(3-pyrazin-2-yl-1,2,4-oxadiazol-5-yl)piperidin-1-yl]methyl}phenyl)imidazo[1,2-a]pyrimidine], for which the IC50 is 1000 to 10000 nM in assay [1] and over 10000 nM in assay [3].

As to `N#Cc1cccn2c(-c3ccccc3)c(-c3ccc(CN4CCC(c5n[nH]c(-c6ccccn6)n5)CC4)cc3)nc12` [Example 5, 3-phenyl-2-(4-{[4-(5-pyridin-2-yl-1,2,4-triazol-3-yl)piperidin-1-yl]methyl}phenyl)imidazo[1,2-a]pyridine-8-carbonitrile], the IC50 in assay [1] and in assay [2] was under 1000 nM each time.

On to `Clc1nccn2c(-c3ccccc3)c(-c3ccc(CN4CCC(c5n[nH]c(-c6ccccn6)n5)CC4)cc3)nc12` [Example 26, 8-chloro-3-phenyl-2-(4-{[4-(5-pyridin-2-yl-1,2,4-triazol-3-yl)piperidin-1-yl]methyl}phenyl)imidazo[1,2-a]pyrazine], for which the IC50 is 1000 to 10000 nM in assay [1] and under 10000 nM in assay [3].

Regarding `FC(F)(F)c1ccn2c(-c3ccccc3)c(-c3ccc(CN4CCC(c5n[nH]c(-c6ccccn6)n5)CC4)cc3)nc2n1` [Example 28, 3-phenyl-2-(4-{[4-(5-pyridin-2-yl-1,2,4-triazol-3-yl)piperidin-1-yl]methyl}phenyl)-7-(trifluoromethyl)imidazo[1,2-a]pyrimidine], the IC50 was 1000 to 10000 nM in assay [1] and under 10000 nM in assay [3].

As to `Clc1ccc2nc(-c3ccc(CN4CCC(c5n[nH]c(-c6ccccn6)n5)CC4)cc3)c(-c3ccccc3)n2n1` [Example 31, 6-chloro-3-phenyl-2-(4-{[4-(5-pyridin-2-yl-1,2,4-triazol-3-yl)piperidin-1-yl]methyl}phenyl)imidazo[1,2-b]pyridazine], the IC50 in assay [1] and in assay [2] was under 1000 nM throughout.

As for `c1ccc(-c2nc(C3CCN(Cc4ccc(-c5nc6ncccn6c5-c5cccs5)cc4)CC3)n[nH]2)nc1` [Example 35, 2-(4-{[4-(5-pyridin-2-yl-1,2,4-triazol-3-yl)piperidin-1-yl]methyl}phenyl)-3-(2-thienyl)imidazo[1,2-a]pyrimidine], the IC50 in assay [1] was 1000 to 10000 nM; in assay [3], under 10000 nM.

For `c1ccc(-c2nc(C3CCN(Cc4ccc(-c5nc6ncccn6c5-c5ccncc5)cc4)CC3)n[nH]2)nc1` [Example 36, 3-pyridin-4-yl-2-(4-{[4-(5-pyridin-2-yl-1,2,4-triazol-3-yl)piperidin-1-yl]methyl}phenyl)imidazo[1,2-a]pyrimidine], the figures for the IC50 in assay [1] and in assay [3] were 1000 to 10000 nM and over 10000 nM, respectively.

As for `NC(=O)c1cccn2c(-c3ccccc3)c(-c3ccc(CN4CCC(c5n[nH]c(-c6ccccn6)n5)CC4)cc3)nc12` [Example 40, 3-phenyl-2-(4-{[4-(5-pyridin-2-yl-1,2,4-triazol-3-yl)piperidin-1-yl]methyl}phenyl)imidazo[1,2-a]pyridine-8-carboxamide], the IC50 in assay [1] and in assay [2] was under 1000 nM each time.

The compound `Fc1ccccc1-c1c(-c2ccc(CN3CCC(c4n[nH]c(-c5ccccn5)n4)CC3)cc2)nc2ncccn12` [Example 41, 3-(2-fluorophenyl)-2-(4-{[4-(5-pyridin-2-yl-1,2,4-triazol-3-yl)piperidin-1-yl]methyl}phenyl)imidazo[1,2-a]pyrimidine] returned an IC50 in assay [2] of under 1000 nM.

Consider `c1ccc(-c2nc(C3CCN(Cc4ccc(-c5nc6sccn6c5-c5nccs5)cc4)CC3)n[nH]2)nc1` [Example 42, 6-(4-{[4-(5-pyridin-2-yl-1,2,4-triazol-3-yl)piperidin-1-yl]methyl}phenyl)-5-(1,3-thiazol-2-yl)imidazo[2,1-b][1,3]thiazole], for which, in assay [2], the IC50 was under 1000 nM.
